Counter-ions that a name gives are not always drawn. Marks after values point to notes of the source that are not given here.
Experiments:
Chung model rat = experiment: Analgesic efficacy test (2): Chung model rat, neuropathic pain model (allodynia, von Frey filament); type: in vivo, rats; details: mean ± standard error
Description: An analgesic efficacy test was conducted using a Chung model rat, a neuropathic pain model. Nine-week old Wistar male rats were previously bred as an experimental animal, and a model rat was then prepared in accordance with the method of Kim and Chung (Pain, 50, 355-363, 1992). Specifically, left L5 spinal nerves of rats were exposed under anesthetization with pentobarbital (40 mg/kg, intraperitoneal administration), and firmly ligated with 5-0 silk yarn at L5 dorsal root ganglion peripheral side. The animals were placed in a transparent acrylic cage of which bottom was wire netted The measurement of allodynia was carried out using von Frey filament (manufactured by North Coast Medical Inc.) and a 50% reaction threshold was calculated according to an up-down method, in accordance with a method of Chaplan et al. (J. Neurosci. Method, 53, 55-63, 1994). The 50% reaction thresholds were measured twice before injury of the spinal nerve, and those animals of which thresholds were outside the standard were removed from the operation of spinal nerve injury. On or after 14 days from the spinal nerve injury, a 50% reaction threshold was measured, and those showing thresholds of 1 g or more and less than 4 g were used as experimental animal. The group was constituted by 7 or 8 rats per group so that an average of a 50% reaction threshold for each group would be nearly even.
A solution or suspension prepared by dissolving or suspending a compound of the present invention in a 0.5% (w/v) aqueous CMC-Na solution was orally administered as a test substance in a single dose. Also, a 0.5% (w/v) aqueous CMC-Na solution was administered in the same manner to the control group for nerve injury. The measurements of allodynia were carried out with the passage of time after administration, and a 50% reaction threshold (mean±standard error) of each group at action peak was calculated. In the test for significance difference, Bartlett's test was carried out in the comparison between multiple groups of the group administered with test substance with the control group for nerve injury. In the case of homoscedasticity, Dunnett's multiple comparison test of parametrics, and in the case of heteroscedasticity, Dunnett's multiple comparison test of non-parametrics were used. In all cases, significance difference was considered to be found at P<0.05 (indicated as “*” in the tables).

[1] = oral 1 mg/kg, measurement point 90 minute (action peak)
[2] = oral 10 mg/kg, measurement point 90 minute (action peak)
[3] = oral 1 mg/kg, measurement point 60 minute (action peak)
[4] = oral 10 mg/kg, measurement point 60 minute (action peak)

Structure (SMILES) | melting point | also measured
Cl.O=C(/C=C/c1ccccc1F)NCCc1cccnc1 | 116 to 117 °C | –
CN(C)CCCCNC(=O)/C=C/c1ccccc1F.Cl | 107 to 108 °C | –
Cl.O=C(/C=C/c1cccc(C(=O)O)c1)NCCn1ccnc1 | 195 to 197 °C | –
Cl.O=C(/C=C/c1ccc(C(=O)O)cc1)NCCn1ccnc1 | 237 to 238 °C | –
Cl.O=C(/C=C/c1ccccc1C(F)(F)F)NCCCN1CCOCC1 | 197 to 198 °C | –
Cl.O=C(/C=C/c1ccccc1F)NCCCN1CCCCC1 | 166 to 167 °C | –
Cl.O=C(/C=C/c1ccccc1F)NCCCNC1CCCCC1 | 227 to 228 °C | –
C/C(=C\c1ccccc1F)C(=O)NCCCN1CC[S+]([O-])CC1.Cl | 180 to 181 °C | –
O=C(/C=C/c1ccccc1F)NCCCN1CCNCC1 (as salt: hydrochloride) | 143 to 144 °C | –
O=C(/C=C/c1ccccc1F)NCCc1ccccn1 (as salt: hydrochloride) [Compound 9, (E)-3-(2-Fluorophenyl)-N-[2-(2-pyridyl)ethyl]-2-propenamide hydrochloride] | 86 to 87 °C | –
CN1CCN(CCCNC(=O)/C=C/c2ccccc2F)CC1 (as salt: hydrochloride) [Compound 15, (E)-3-(2-Fluorophenyl)-N-[3-(4-methylpiperazin-1-yl)propyl]-2-propenamide dihydrochloride] | 133 to 138 °C | –
O=C(/C=C/c1ccccc1F)NCCN1CCNCC1 (as salt: hydrochloride) [Compound 16, (E)-3-(2-Fluorophenyl)-N-[2-(piperazin-1-yl)ethyl]-2-propenamide dihydrochloride] | 212 to 213 °C | –
Nc1ccccc1CCNC(=O)/C=C/c1ccccc1F [Compound 19, (E)-N-[2-(2-Aminophenyl)ethyl]-3-(2-fluorophenyl)-2-propenamide] | 128 to 129 °C | –
O=C(/C=C/c1ccccc1F)NCCn1cnc2ccccc21 [Compound 22, (E)-N-[2-(Benzoimidazol-1-yl)ethyl]-3-(2-fluorophenyl)-2-propenamide] | 143 to 145 °C | –
O=C(/C=C/c1ccc(F)cc1F)NCCn1ccnc1 [Compound 23, (E)-3-(2,4-Difluorophenyl)-N-[2-(imidazol-1-yl)ethyl]-2-propenamide] | 113 to 115 °C | 50% Reaction Threshold, Group Administered with Test Substance, After Administration (Chung model rat; [1]): 8.22 ± 1.43* g; 50% Reaction Threshold, Group Administered with Test Substance, After Administration (Chung model rat; [2]): 9.81 ± 1.27* g
O=C(/C=C/c1cc(F)ccc1F)NCCn1ccnc1 [Compound 24, (E)-3-(2,5-Difluorophenyl)-N-[2-(imidazol-1-yl)ethyl]-2-propenamide] | 118 to 120 °C | 50% Reaction Threshold, Group Administered with Test Substance, After Administration (Chung model rat; [3]): 4.63 ± 0.36 g; 50% Reaction Threshold, Group Administered with Test Substance, After Administration (Chung model rat; [4]): 7.85 ± 0.99* g
O=C(/C=C/c1cccc(F)c1)NCCCN1CCOCC1 [Compound 25, (E)-3-(3-Fluorophenyl)-N-(3-morpholinopropyl)-2-propenamide] | 80 to 81 °C | 50% Reaction Threshold, Group Administered with Test Substance, After Administration (Chung model rat; [3]): 8.17 ± 1.09* g; 50% Reaction Threshold, Group Administered with Test Substance, After Administration (Chung model rat; [4]): 9.68 ± 1.20* g
O=C(/C=C/c1ccc(F)cc1)NCCCN1CCOCC1 [Compound 26, (E)-3-(4-Fluorophenyl)-N-(3-morpholinopropyl)-2-propenamide] | 88 to 89 °C | 50% Reaction Threshold, Group Administered with Test Substance, After Administration (Chung model rat; [3]): 10.25 ± 1.07* g; 50% Reaction Threshold, Group Administered with Test Substance, After Administration (Chung model rat; [4]): 14.33 ± 0.67* g
O=C(/C=C/c1cccc(F)c1F)NCCCN1CCOCC1 [Compound 27, (E)-3-(2,3-Difluorophenyl)-N-(3-morpholinopropyl)-2-propenamide] | 97 to 99 °C | –

Structure (SMILES) | melting point | also measured
O=C(/C=C/c1ccc(F)cc1F)NCCCN1CCOCC1 [Compound 28, (E)-3-(2,4-Difluorophenyl)-N-(3-morpholinopropyl)-2-propenamide] | 94 to 95 °C | 50% Reaction Threshold, Group Administered with Test Substance, After Administration (Chung model rat; [3]): 8.44 ± 1.81* g; 50% Reaction Threshold, Group Administered with Test Substance, After Administration (Chung model rat; [4]): 12.05 ± 1.44* g
O=C(/C=C/c1cc(F)ccc1F)NCCCN1CCOCC1 [Compound 29, (E)-3-(2,5-Difluorophenyl)-N-(3-morpholinopropyl)-2-propenamide] | 71 to 72 °C | 50% Reaction Threshold, Group Administered with Test Substance, After Administration (Chung model rat; [3]): 5.10 ± 0.42 g; 50% Reaction Threshold, Group Administered with Test Substance, After Administration (Chung model rat; [4]): 10.51 ± 1.15* g
O=C(/C=C/c1c(F)cccc1F)NCCCN1CCOCC1 [Compound 30, (E)-3-(2,6-Difluorophenyl)-N-(3-morpholinopropyl)-2-propenamide] | 75 to 76 °C | –
O=C(/C=C/c1ccc(F)c(F)c1)NCCCN1CCOCC1 [Compound 31, (E)-3-(3,4-Difluorophenyl)-N-(3-morpholinopropyl)-2-propenamide] | 127 to 128 °C | –
O=C(/C=C/c1ccc(C(F)(F)F)cc1F)NCCCN1CCOCC1 [Compound 32, (E)-3-(2-Fluoro-4-trifluoromethylphenyl)-N-(3-morpholinopropyl)-2-propenamide] | 102 to 103 °C | –
O=C(/C=C/c1ccccc1F)NCCN1CCCC1 [Compound 35, (E)-3-(2-Fluorophenyl)-N-[2-(pyrrolidin-1-yl)ethyl]-2-propenamide] | 83 to 84 °C | –
O=C(/C=C/c1ccccc1F)NCCN1CCCCCC1 [Compound 36, (E)-N-[(2-Azepan-1-yl)ethyl]-3-(2-fluorophenyl)-2-propenamide] | 80 to 81 °C | –
COc1ccc(CCNC(=O)/C=C/c2ccccc2F)cc1 [Compound 37, (E)-3-(2-Fluorophenyl)-N-[2-(4-methoxyphenyl)ethyl]-2-propenamide] | 123 to 124 °C | –
O=C(/C=C/c1ccccc1F)NCCn1cncn1 [Compound 39, (E)-3-(2-Fluorophenyl)-N-[2-([1,2,4]triazol-1-yl)ethyl]-2-propenamide dihydrochloride] | – | 50% Reaction Threshold, Group Administered with Test Substance, After Administration (Chung model rat; [1]): 3.55 ± 0.59 g; 50% Reaction Threshold, Group Administered with Test Substance, After Administration (Chung model rat; [2]): 4.05 ± 0.48* g
O=C(/C=C/c1ccccc1F)NCCn1ccc2ccccc21 [Compound 41, (E)-3-(2-Fluorophenyl)-N-[2-(indol-1-yl)ethyl]-2-propenamide] | 96 to 98 °C | –
O=C(/C=C/c1ccccc1F)NCCn1ccnc1-c1ccccc1 [Compound 44, (E)-3-(2-Fluorophenyl)-N-[2-(2-phenylimidazol-1-yl)ethyl]-2-propenamide] | 163 to 164 °C | –
Cl.O=C(/C=C/c1ccccc1F)NCCCn1ccnc1 [Compound 45, (E)-3-(2-Fluorophenyl)-N-[3-(imidazol-1-yl)propyl]-2-propenamide hydrochloride] | – | 50% Reaction Threshold, Group Administered with Test Substance, After Administration (Chung model rat; [1]): 8.81 ± 1.05* g; 50% Reaction Threshold, Group Administered with Test Substance, After Administration (Chung model rat; [2]): 12.23 ± 1.10* g
O=C(/C=C/c1ccccc1C(=O)O)NCCn1ccnc1 [Compound 47, (E)-3-(2-Carboxyphenyl)-N-[(2-imidazol-1-yl)ethyl]-2-propenamide] | – | 50% Reaction Threshold, Group Administered with Test Substance, After Administration (Chung model rat; [3]): 10.58 ± 1.74* g; 50% Reaction Threshold, Group Administered with Test Substance, After Administration (Chung model rat; [4]): 13.58 ± 0.67* g
O=C(/C=C/c1ccccc1F)Nc1ccc(-c2ccn[nH]2)cc1 [Compound 51, (E)-3-(2-Fluorophenyl)-N-[4-(2H-pyrazol-3-yl)phenyl]-2-propenamide] | 116 to 118 °C | –
O=C(/C=C/c1ccccc1F)Nc1cccc(-c2ccn[nH]2)c1 [Compound 52, (E)-3-(2-Fluorophenyl)-N-[3-(2H-pyrazol-3-yl)phenyl]-2-propenamide] | – | 50% Reaction Threshold, Group Administered with Test Substance, After Administration (Chung model rat; oral 1 mg/kg, measurement point 30 minute (action peak)): 7.42 ± 1.14* g; 50% Reaction Threshold, Group Administered with Test Substance, After Administration (Chung model rat; oral 10 mg/kg, measurement point 30 minute (action peak)): 9.12 ± 2.00* g
O=C(/C=C/c1ccccc1F)Nc1ccc(-c2ccno2)cc1 [Compound 53, (E)-3-(2-Fluorophenyl)-N-[4-(isoxazol-5-yl)phenyl]-2-propenamide] | 204 to 206 °C | –
N#C/C(=C\c1ccc(F)cc1)C(=O)NCCCN1CCOCC1 [Compound 58, (E)-2-Cyano-3-(4-fluorophenyl)-N-(3-morpholinopropyl)-2-propenamide] | 110 to 111 °C | –
O=C(O)CCNC(=O)/C=C/c1ccccc1F [Compound 66, 3-{[(E)-3-(2-Fluorophenyl)-2-propenoyl]amino}propanoic acid] | 193 to 195 °C | –

Reference: US9540338B2, “Substituted cinnamic acid amides for treating pain” (NIPPON ZOKI PHARMACEUTICAL CO., LTD., priority 2012, dated 2017)
